Reference: patent US20060160897A1, “Topical Use of Valproic Acid for the Prevention or Treatment of Skin Disorders” (priority 2003, published 2006)

Key:
HaCaT cells = assay: BrdU incorporation assay; assay type: cell-based, human; details: VPA added day 0, assay day 2, FIG. 4
Protocol: BrdU incorporation assays: Cell proliferation was detected by labeling cells with BrdU. […] Cells were incubated for 1 hour in the culture medium and then fixed with 70% ethanol. The incorporated BrdU was detected by the indirect immunoperoxidase method (Amersham, Arlington Heights, Ill.). Briefly, the culture cells were first incubated for 1 hour with Biotin-Mouse Anti-BrdU antibody. After washing in TTBS buffer (20 mM Tris, 500 mM NaCl, 0.05% Tween-20, pH 7.5), the cells were further incubated with Biotinylated goat anti-mouse immunoglobulins for 10 min. Cells were then washed and incubated with enzyme (peroxidase) conjugate for 10 min at room temperature. […] The positive cells were counted on 10 randomly picked microscopic fields. HaCaT cells were plated in 35 mm diameter wells on day 0. […] The BrdU assay was carried out on day 2.

histone H4 acetylation [1] = assay: Western blot of acetylated histone H4 in keratinocytes; assay type: cell-based, human; details: HaCaT, 24 hours treatment; FIG. 7
Protocol: Western blot: HaCaT cells were seeded into 6-well culture dishes 24 hrs before treatment. […] Whole cell extracts were prepared by lysis of cells in RIPA buffer plus protease inhibitors for denaturing SDS gel electrophoresis on a 12% denaturing polyacrylamid gel. Acetylated histone H4 was detected by Western blot analysis using an anti-acetylated H4 antibody (clone T25; see patent application EP 02.021984.6) and as an equal loading control expression of β-actin was confirmed using an anti-actin antibody (Sigma, Cat. No. A5441).
Cells were plated in 6 well plates at day 0. Drugs were added on day 1, cells were lysed on day 2 with RIPA buffer plus protease inhibitors. 40 μg of total cell lysate were separated by 12.5% SDS PAGE and subjected to immunoblotting with the indicated antibodies.

histone H4 acetylation [2] = assay: Immunohistochemistry of acetylated H4 after topical application to BCC lesions of patients; assay type: in vivo, human; details: VPA 3% (w/w) topically 16-20 hours before surgical excision vs placebo; FIG. 10
Protocol: Cryostat skin sections of 3 μm thickness were fixed in acetone at room temperature for 10 min. Before staining with anti-acetylated H4 antibody (clone T25, see above) the tissue was blocked by preincubation with F(ab′)2 fragments derived from goat anti-mouse immunoglobulin (Cappel) ( 1/10000 dilution in 50 mM Tris buffered saline, TBS) for 30 min. After rinsing with TBS for 10 min, the sections were incubated with anti-acetylated H4 antibody (clone T25) ( 1/4000 dilution in TBS) at room temperature for 1 hour. Then, the specimens were incubated with the rabbit anti-mouse serum and treated with APAAP (alkaline phosphatase anti-alkaline phosphatase) immunocomplex as described above. The positive staining was developed in red color with naphthol-AS-BI phosphate as a substrate, and New Fuchsin (Dako) as a chromogen. Pictures were taken with a digital camera connected to a light microscopy apparatus.
Skin biopsies were frozen in liquid nitrogen immediately after excision. Immunohistochemistry was then performed on 3 μm sections as described in methods. Biopsies of skin topically treated with Placebo or VPA were processed in parallel, pictures were taken with a light microscopy apparatus connected to a digital camera under the same light intensity.

inflammatory cytokines [3] = assay: Semiquantitative RT-PCR of cytokine mRNA, LPS stimulated keratinocytes; assay type: cell-based, human; details: HaCaT, 200 nM TSA or 5 mM VPA 4 hours, then LPS 100 ng/ml 24 hours, FIG. 12A
Protocol: Human immortalized keratinocytes (HaCaT cells) were seeded at a density of 2.5 million cells per ml into 75 cm^2 flasks. […] After 24 hours at 37° C. cells were lysed and total RNA was isolated using the RNeasy mini kit from Qiagen.
(§1) One microgram of total RNA was transcribed to cDNA by standard methods using reverse transcriptase and an oligo-dT primer (Invitrogen). For semiquantitative PCR, 2 μl of cDNA was amplified by PCR using specific primers. Primers for PCR were synthesized by MWG and are as follows: […]

inflammatory cytokines [4] = assay: Semiquantitative RT-PCR of cytokine mRNA, PMA/Ion stimulated peripheral blood lymphocytes; assay type: cell-based, human; details: PBLs preincubated 2 hours, PMA/Ion 24 hours; FIGS. 12B, 13
Protocol: Monocyte and macrophage depleted peripheral blood mononuclear cells were obtained from consenting adults via separation using Ficoll-Hypaque. The peripheral blood mononuclear cells (PBMC) fraction was washed and seeded in 9 cm petri dishes. After an incubation of 2 hours at 37° C. to remove most of the monocytes, macrophages, and B-cells, the non-adherent cells were collected and cultured in 175 cm^2 flasks for 2 days. Cells were harvested and adjusted to 3 million cells per ml. Aliquots of 500 μl were transferred to each well of 24-well flat bottom plates. Peripheral blood lymphocytes (PBL's) were treated with various concentrations of HDAC inhibitors as indicated. After a 2 hours incubation time at 37° C. cells were stimulated with phorbol 12-myristate 13-acetate (PMA)/ionomycin (Ion) or activated via T cell receptor (TCR/CD3) complex with 10 μg/ml anti-CD3 mAb (OKT3) and 2.5 μg/ml anti-CD28 mAb. After 24 hours at 37° C. the supernatant was removed and frozen for cytokine assays. Cell pellets were lysed and total RNA was isolated using the RNeasy mini kit from Qiagen.
as §1

[5] = tested on: acetylated histones H3 and H4 and HDAC-2; assay: Western blot of peripheral blood cells from patients treated with VPA intravenously (Phase I/II study); assay type: in vivo, human; details: before, 6 h, 24 h, 48 h after start, FIG. 18
Protocol: Whole cell extracts were prepared by lysis of cells in RIPA buffer including protease inhibitors. Lysates were separated by SDS gel electrophoresis and transferred onto PVDF membranes. Acetylated histones H3 and H4 and the marker gene HDAC-2 were detected by western blot analysis using an anti-acetylated H3 antibody (Upstate, #06-942), an anti-acetylated H4 antibody (clon T25; patent application EP 02.021984.6), and an anti-HDAC-2 antibody (SCBT, SC-7899). As an equal loading control PVDF membranes were stained with Coomassie (FIG. 18).

IL-2 and TNF-α = assay: ELISA of IL-2 and TNF-α, blood cells of VPA treated patient stimulated with CD3/CD28; assay type: in vivo, human; details: CD3/CD28 stimulated 24 hours
Protocol: The cells were either left unstimulated or stimulated with CD3 and CD28 antibodies. After 24 hours at 37° C. the supernatant was collected and the secretion of IL-2 and TNF-α was quantified by ELISA (R&D Systems) (FIGS. 19A and B).

inflammatory cytokines [6] = assay: RT-PCR of cytokine mRNA, blood cells of VPA treated patient stimulated with CD3/CD28; assay type: in vivo, human
Protocol: Total RNA from unstimulated and CD3/CD28 stimulated cells was isolated using the RNeasy mini kit (Qiagen). One microgram of total RNA was converted to cDNA by standard methods using reverse transcriptase and an oligo-dT primer (Invitrogen). For semiquantitative PCR, 2 μl of cDNA were amplified by PCR using the specific primers as described above (FIG. 19C).

mouse embryos = details: mice, when properly dosed; cited from earlier work
[7] = vs untreated stimulated control
[8] = starting at 24 hours of VPA treatment

CCCC(CCC)C(=O)O [VPA, 2-propyl-pentanoic acid]
BrdU positive cells (cell cycle arrest) (HaCaT cells): dose-dependent reduction of BrdU positive cells
histone H4 acetylation (Western blot) (histone H4 acetylation [1]): induces histone H4 hyperacetylation in a dose dependent manner
histone H4 acetylation in BCC cells and normal skin cells of patients (histone H4 acetylation [2]): clear increase of histone H4 acetylation
IFN-γ mRNA transcript (inflammatory cytokines [3]): significantly reduced
IL-6 mRNA level (inflammatory cytokines [3]; [7]): significant decrease
TNF-α mRNA level (inflammatory cytokines [3]; [7]): significant decrease
IL-4 mRNA transcripts (inflammatory cytokines [4]): significantly reduced
IL-6 mRNA transcripts (inflammatory cytokines [4]): decreased IL-6 mRNA back to the level seen in the unstimulated sample
HDAC-2 protein in peripheral blood cells [5]: down-regulation of the marker protein HDAC-2
histone H3 and H4 acetylation in peripheral blood cells [5]: Histone H3 and H4 hyperacetylation
IL-2 in culture supernatant (ELISA) (IL-2 and TNF-α): modulates the expression
TNF-α in culture supernatant (ELISA) (IL-2 and TNF-α): modulates the expression
IL-2 mRNA transcripts (inflammatory cytokines [6]; CD3/CD28 stimulated): decrease
TNF-α mRNA transcripts (inflammatory cytokines [6]; CD3/CD28 stimulated): decrease
IFN-γ mRNA expression (inflammatory cytokines [6]; [8]): significantly reduced
IL-4 mRNA expression (inflammatory cytokines [6]; [8]): significantly reduced
teratogenicity (mouse embryos): teratogenic in the majority of mouse embryos
